The values below come from PubChem BioAssay (NCI).

Values joined by “and” are separate entries in the source; they are usually repeats but may differ in a detail not shown here. Identical values can stand only once.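 96-well plates; 48 h exposure; 5 concentrations. Endpoints by linear interpolation between flanking doses. Not reached: highest tested concentration assigned. GI50 = concentration required for 50% inhibition of growth. Definition used: TGI = concentration required for complete inhibition of growth.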 A value given as a limit tells only on which side of the number the result lay.

Among the test systems are ACHN renal; MALME-3M melanoma; NCI-H522 lung; SF-268 CNS; SF-539 CNS; SR leukemia; UACC-257 melanoma; A498 renal; RXF 393 renal; HL-60(TB) leukemia.
Common to all, as to test: NCI tumour cell line growth inhibition, 48 h

For the compound `CCCO/S(=N\S(=O)(=O)c1ccccc1)c1ccccc1[N+](=O)[O-]` (stereo not given), the TGI with ACHN renal, in the experiment with MALME-3M melanoma, in the experiment on NCI-H522 lung, in the experiment with SF-268 CNS, in the experiment with SF-539 CNS and in the experiment on SR leukemia was over 100 µM each time. Also, the TGI in the experiment on UACC-257 melanoma was over 100 µM.
As to `O=C(Nc1ccc(F)cc1)c1cc(S(=O)(=O)Nc2nc3ccccc3o2)c(SCc2ccccc2)cc1Cl`, the GI50 in the experiment on A498 renal was 17.2 µM; with ACHN renal it was 17.5 µM; with RXF 393 renal it was 12.8 µM; in the experiment with SF-268 CNS, 17.9 µM; in the experiment with SF-539 CNS it was 17.1 µM; in the experiment on UACC-257 melanoma, 13.5 µM. Moreover, the TGI in the experiment with A498 renal was 32.5 µM; in the experiment with ACHN renal it was 32.2 µM; with RXF 393 renal, 30.2 µM; with SF-268 CNS it was 43.1 µM; in the experiment on SF-539 CNS it was 31.2 µM; with UACC-257 melanoma, 28.4 µM.
For the compound `Cc1cc(NS(=O)(=O)c2ccc(Nc3c4ccccc4nc4c(C(=O)N5CCN(CCO)CC5)ccc(Cl)c34)cc2)no1`, the TGI in the experiment with A498 renal, in the experiment on HL-60(TB) leukemia, in the experiment on MALME-3M melanoma, with RXF 393 renal, in the experiment with SF-268 CNS and with SF-539 CNS was over 100 µM in each case. In addition, in the experiment on UACC-257 melanoma, the TGI was over 100 µM.
For the compound `COC(=O)[C@@H](C)C[C@H](Cc1ccccc1)NC(=O)c1csc([C@@H](C[C@H](C(C)C)N(C)C(=O)[C@@H](NC(=O)[C@H]2CCCCN2C)C2CCCCC2)OC(C)=O)n1`, the GI50 in the experiment on A498 renal was 0.000272 µM and 0.0025 µM; in the experiment with ACHN renal, 0.000746 µM and 0.0025 µM; with HL-60(TB) leukemia it was 0.000306 µM and < 0.0025 µM; in the experiment on RXF 393 renal, 0.00103 µM; with SF-268 CNS, 0.00375 µM and 0.0025 µM; in the experiment with SF-539 CNS, 0.00211 µM and 0.0025 µM. Besides, the GI50 with SR leukemia is 0.000274 µM and 0.0025 µM. Besides, the TGI is over 25 µM with ACHN renal; 0.00159 µM and < 0.0025 µM with HL-60(TB) leukemia; over 25 µM in the experiment on SF-268 CNS; 0.00619 µM and 0.00859 µM in the experiment on SF-539 CNS; 2.9 µM with SR leukemia.
As for `COC(=O)/C=C1\CCC(C)O1` (stereo not given), the TGI in the experiment on ACHN renal, with HL-60(TB) leukemia, in the experiment on MALME-3M melanoma, in the experiment on RXF 393 renal, in the experiment on SF-268 CNS and with SF-539 CNS was over 100 µM in each case. The same compound displayed a TGI with UACC-257 melanoma of over 100 µM.
With `CSc1ccc2c(c1)C(=O)c1c-2n(CCCBr)c(=O)c2cc([N+](=O)[O-])ccc12`, the GI50 in the experiment on A498 renal is 8.32 µM; in the experiment on ACHN renal it was 1.61 µM; with HL-60(TB) leukemia, 0.532 µM; in the experiment on MALME-3M melanoma, 11.6 µM; in the experiment on NCI-H522 lung, 5.32 µM; in the experiment on RXF 393 renal it was over 100 µM. Further, the results for the GI50 with SF-268 CNS, in the experiment with SF-539 CNS and in the experiment on UACC-257 melanoma were 7.42 µM, 4.59 µM and over 100 µM, respectively. The TGI in the experiment with A498 renal was 96.4 µM; in the experiment with ACHN renal, 8.4 µM; in the experiment with HL-60(TB) leukemia it was 8.46 µM; in the experiment on MALME-3M melanoma it was over 100 µM; in the experiment on NCI-H522 lung, 97.4 µM; in the experiment on RXF 393 renal it was over 100 µM. Besides, the TGI with SF-268 CNS, in the experiment on SF-539 CNS and with UACC-257 melanoma was over 100 µM each time.
Take `CNS(=O)(=O)NNS(=O)(=O)c1ccc(Br)cc1`: the TGI with A498 renal, in the experiment with ACHN renal, with HL-60(TB) leukemia, in the experiment with MALME-3M melanoma, in the experiment on NCI-H522 lung and with RXF 393 renal was over 100 µM each time. Further, the TGI in the experiment with SF-268 CNS, in the experiment on SF-539 CNS and with UACC-257 melanoma was over 100 µM each time.
Consider `CC(=O)O[C@H]1CCC2[C@@H]3CCC4Nc5[nH]ncc5C[C@]4(C)C3CC[C@@]21C` (stereo not given in full), for which the TGI was over 100 µM with A498 renal; over 100 µM in the experiment with ACHN renal; 42.5 µM in the experiment with HL-60(TB) leukemia; over 100 µM in the experiment on MALME-3M melanoma; 83.2 µM with NCI-H522 lung; over 100 µM with RXF 393 renal. Moreover, the TGI with SF-268 CNS is over 100 µM; in the experiment on SF-539 CNS it was over 100 µM; with UACC-257 melanoma, 72.4 µM.
In the case of `O=C1NC(=O)C(c2cccc([N+](=O)[O-])c2)=C1Nc1cc(Cl)c(O)c(Cl)c1`, the GI50 in the experiment on A498 renal was over 11.5 µM; in the experiment with ACHN renal, over 25 µM; in the experiment on HL-60(TB) leukemia, over 25 µM; with MALME-3M melanoma it was over 25 µM; in the experiment with NCI-H522 lung, over 16.5 µM; in the experiment with RXF 393 renal, over 21.7 µM. For the same compound, the GI50 in the experiment on SF-268 CNS and in the experiment with SF-539 CNS was over 25 µM each time. Besides, the TGI in the experiment on A498 renal, in the experiment on ACHN renal, in the experiment with HL-60(TB) leukemia, in the experiment with MALME-3M melanoma, in the experiment with NCI-H522 lung and in the experiment with RXF 393 renal was over 25 µM in each case. The TGI in the experiment on SF-268 CNS and with SF-539 CNS was over 25 µM each time.
For the compound `COc1cc2c3c(n(CCCOC(=O)C(F)(F)F)c(=O)c2cc1OC)-c1cc2c(cc1C3=O)OCO2`, the GI50 with A498 renal is 0.375 µM; in the experiment on ACHN renal, under 0.01 µM; with MALME-3M melanoma it was 0.159 µM; in the experiment on NCI-H522 lung, 0.0167 µM; with RXF 393 renal it was 0.593 µM; in the experiment on SF-539 CNS it was under 0.01 µM. Also, the TGI with A498 renal was 20.6 µM; in the experiment on MALME-3M melanoma, over 100 µM; in the experiment on RXF 393 renal, over 67.8 µM; in the experiment with SF-268 CNS, over 32.2 µM; with SF-539 CNS, 0.0699 µM.
On to `CC(C)N(C(=O)C12C3C4C1(I)C1C2C3(I)C41C(=O)N(C(C)C)C(C)C)C(C)C` (stereo not given), for which the TGI was over 100 µM with A498 renal; over 100 µM in the experiment on ACHN renal; over 61.3 µM with HL-60(TB) leukemia; over 100 µM in the experiment with MALME-3M melanoma; over 100 µM in the experiment on NCI-H522 lung; over 100 µM with RXF 393 renal. Moreover, the TGI in the experiment with SF-268 CNS is over 100 µM; in the experiment on SF-539 CNS, over 59.6 µM; in the experiment on UACC-257 melanoma, over 100 µM.
In the case of `N#Cc1c(N/N=C/c2ccc(Cl)cc2Cl)nc(N)nc1N1CCCC1`, the GI50 was 19.5 µM in the experiment with A498 renal; 24.5 µM in the experiment on ACHN renal; 27.7 µM in the experiment on HL-60(TB) leukemia; 28.9 µM with NCI-H522 lung; 21.5 µM in the experiment with RXF 393 renal; 68.3 µM in the experiment on SF-268 CNS. In addition, the values for the GI50 in the experiment on SF-539 CNS, in the experiment with SR leukemia and in the experiment on UACC-257 melanoma were 22.8 µM, 10.7 µM and over 100 µM, respectively. Further, the TGI is 36.1 µM in the experiment with A498 renal; 90.2 µM with ACHN renal; 59.4 µM in the experiment on HL-60(TB) leukemia; over 100 µM with NCI-H522 lung; 66.2 µM with RXF 393 renal; over 100 µM in the experiment on SF-268 CNS. Moreover, the TGI in the experiment with SF-539 CNS was over 100 µM; with SR leukemia, 42.9 µM; in the experiment with UACC-257 melanoma it was over 100 µM.
